Assay results reported in patent US7199147B2, “Rho kinase inhibitors” (Dainippon Sumitomo Pharma Co., Ltd., priority 2001, dated 2007).
Counter-ions that a name gives are not always drawn.

| SMILES | melting point |
| --- | --- |
| CN(CCC(=O)Nc1ccc2[nH]ncc2c1)Cc1ccccc1 | 140 to 141 °C |
| O=C(CCOCc1ccccc1)Nc1ccc2[nH]ncc2c1 | 167 to 169 °C |
| CN(CCCNc1ccc2[nH]ncc2c1)Cc1ccccc1 | 112 to 114 °C |
| CC(C)CCCOc1ccc2[nH]ncc2c1 | 124 to 126 °C |
| CC(C)COc1ccc2[nH]ncc2c1 | 151 to 153 °C |
| N#Cc1cccc(COc2ccc3[nH]ncc3c2)c1 | 158 to 161 °C |
| CN(CC(=O)Nc1ccc2[nH]ncc2c1)Cc1ccccc1 | 159 to 160 °C |
| NCc1ccc(COc2ccc3[nH]ncc3c2)cc1 | 197 to 198 °C |
| NCc1cccc(COc2ccc3[nH]ncc3c2)c1 | 179 to 183 °C |
| CN(CCCC(=O)Nc1ccc2[nH]ncc2c1)Cc1ccccc1 | 115 to 117 °C |
| O=C1c2ccccc2C(=O)N1[C@H]1CC[C@@H](Oc2ccc3[nH]ncc3c2)CC1 | 194 to 196 °C |
| CN(c1ccc2[nH]ncc2c1)C1CCN(Cc2ccccc2)CC1 | 152 to 154 °C |
| COc1ccc2[nH]ncc2c1C | 148 to 149 °C |
| Cc1c(OC2=CC=CNC=C2)ccc2[nH]ncc12 | 157 to 159 °C |
| Cc1c(O[C@H]2CC[C@H](N)CC2)ccc2[nH]ncc12 | 150 to 152 °C |
| CCN[C@H]1CC[C@H](Oc2ccc3[nH]ncc3c2C)CC1 | 150 to 151 °C |
| Cc1c(OC2CCCNC2)ccc2[nH]ncc12 (centres unmarked) | 183 to 185 °C |
| Cc1c(OC2CCN(C(C)C)CC2)ccc2[nH]ncc12 | 134 to 136 °C |
| Cc1c(OC2CCN(C3CCCC3)CC2)ccc2[nH]ncc12 | 140 to 143 °C |
| Cc1c(OC2CCCN(C3CCCC3)CC2)ccc2[nH]ncc12 (centres unmarked) | 126 to 131 °C |
| Cc1c(O[C@H]2CC[C@@H](NC(C)C)CC2)ccc2[nH]ncc12 | 166 to 168 °C |
| Cc1c(O[C@H]2CC[C@@H](NC3CCCC3)CC2)ccc2[nH]ncc12 | 153 to 155 °C |
| c1ccc(CN2CCN(Cc3ccc4[nH]ncc4c3)CC2)cc1 | 147 to 149 °C |
| Cl.Cl.OCCN1C2CCC1CC(Nc1ccc3[nH]ncc3c1)C2 (centres unmarked) | 154 to 157 °C |
| CCCN1C2CCC1CC(Nc1ccc3[nH]ncc3c1)C2.Cl.Cl (centres unmarked) | 198 to 203 °C |
| COc1ccc2ccccc2c1CNc1ccc2[nH]ncc2c1 | 183 to 185 °C |

| SMILES | melting point |
| --- | --- |
| CSc1c(O)ccc2[nH]ncc12 | 126 to 128 °C |
| CSc1c(O[C@H]2CC[C@@H](N3C(=O)c4ccccc4C3=O)CC2)ccc2[nH]ncc12 | 211 to 212 °C |
| CCC(=O)N[C@H]1CC[C@@H](Oc2ccc3[nH]ncc3c2SC)CC1 | 155 to 156 °C |
| CSc1c(O[C@H]2CC[C@@H](NC(=O)c3ccccc3)CC2)ccc2[nH]ncc12 | 146 to 148 °C |
| c1ccc(CN2CCC(CCNc3ccc4[nH]ncc4c3)CC2)cc1 | 117 to 118 °C |
| CN(C)C(=O)c1ccccc1Nc1ccc2[nH]ncc2c1 | 234 to 235 °C (dec.) |
| Cl.Cl.c1ccc(CN2CCC(Nc3cccc4[nH]ncc34)CC2)cc1 | 257 to 260 °C (dec.) |
| Cn1ncc2cc(NC3CCN(Cc4ccccc4)CC3)ccc21 | 116 to 117 °C |
| Cn1ncc2cc(NC3CCNCC3)ccc21 | 111 to 113 °C |
| Cn1cc2cc(NC3CCN(Cc4ccccc4)CC3)ccc2n1 | 108 to 110 °C |
| Cn1cc2cc(NC3CCNCC3)ccc2n1 | 144 to 147 °C |
| Cc1n[nH]c2ccc(NC3CCN(Cc4ccccc4)CC3)cc12 | 160 to 162 °C |
| Cc1n[nH]c2ccc(NC3CCNCC3)cc12 | 175 to 177 °C |
| c1ccc(CN2CCC(Nc3ccc4oncc4c3)CC2)cc1 | 89 to 90 °C |
| COc1c(OS(C)(=O)=O)ccc2[nH]ncc12 (as salt: methanesulfonate) | 130 to 131 °C |
| N[C@H]1CCC[C@@H](Oc2cccc3[nH]ncc23)C1 (relative stereo) | 166 to 168 °C |
| O=C1c2ccccc2C(=O)N1[C@H]1CCC[C@H](Oc2ccc3[nH]ncc3c2)C1 (relative stereo) | 197 to 198 °C |
| CN(C)[C@H]1CCC[C@H](Oc2ccc3[nH]ncc3c2)C1 (relative stereo) | 134 to 135 °C |
| CCN[C@H]1CCC[C@H](Oc2ccc3[nH]ncc3c2)C1 (relative stereo) | 116 to 118 °C |
| Cc1c(O[C@H]2CCC[C@H](N)C2)ccc2[nH]ncc12 (relative stereo) | 156 to 160 °C |
| N[C@H]1CCC[C@H](Oc2ccc3[nH]ncc3c2Cl)C1 (relative stereo) | 142 to 144 °C |
| CCCCC(=O)N[C@H]1CCC[C@@H](Oc2ccc3[nH]ncc3c2C)C1 (relative stereo) | 190 to 193 °C |
| Cc1c(O[C@@H]2CCC[C@H](NC(=O)C3CCCC3)C2)ccc2[nH]ncc12 (relative stereo) | 242 to 244 °C (dec.) |
| Cc1c(O[C@@H]2CCC[C@H](NCC3CCCC3)C2)ccc2[nH]ncc12 (relative stereo) | 140 to 142 °C |
| COc1ccc(CN[C@H]2CCC[C@@H](Oc3ccc4[nH]ncc4c3C)C2)cc1 (relative stereo) | 164 to 166 °C |
| Cc1c(O[C@H]2CCC[C@H](NC3CCCC3)C2)ccc2[nH]ncc12 (relative stereo) | 110 to 112 °C |

Next, values leading:

| melting point | SMILES |
| --- | --- |
| 242 to 245 °C (dec.) | O=C(O)C(F)(F)F.c1cc2[nH]ncc2cc1NC1CCOCC1 |
| 187 to 189 °C | O=C(NC1CCN(Cc2ccccc2)C1)c1ccc2[nH]ncc2c1 (centres unmarked) |
| 203 to 204 °C | O=C(NC1CCCN(Cc2ccccc2)C1)c1ccc2[nH]ncc2c1 (centres unmarked) |
| 265 to 266 °C | O=C(NC1CCCNC1)c1ccc2[nH]ncc2c1 (centres unmarked) |
| 158 to 159 °C | CCOC(=O)N1C2CCC1CC(Nc1ccc3[nH]ncc3c1)C2 (centres unmarked) |
| 228 to 229 °C | CN1CCCC(NC(=O)c2ccc3[nH]ncc3c2)C1 (centres unmarked) |
| 193 to 195 °C (dec.) | CC(=O)N1CCC(Nc2ccc3[nH]ncc3c2)CC1 |
| 219 to 220 °C (dec.) | CS(=O)(=O)N1CCC(Nc2ccc3[nH]ncc3c2)CC1 |
| 182 to 183 °C | CCS(=O)(=O)N1CCC(Nc2ccc3[nH]ncc3c2)CC1 |
| 132 to 136 °C | O=S(=O)(c1ccccc1)N1CCC(Nc2ccc3[nH]ncc3c2)CC1 |
| 152 to 153 °C | CN(C)CCC(=O)Nc1ccc2[nH]ncc2c1 |
| 178 to 179 °C | O=C(CCN1CCCCC1)Nc1ccc2[nH]ncc2c1 |
| 215 to 216 °C (dec.) | CC(C)CCC(=O)Nc1ccc2[nH]ncc2c1 |
| 173 to 174 °C | COCCC(=O)Nc1ccc2[nH]ncc2c1 |
| 243 to 244 °C (dec.) | O=C(CCC(F)(F)F)Nc1ccc2[nH]ncc2c1 |
| 140 to 141 °C | CC(C)N1CCC(Nc2ccc3[nH]ncc3c2)CC1 |
| 120 to 123 °C | O=S(=O)(Nc1ccc2[nH]ncc2c1)C1CCNCC1 |
| 162 to 165 °C | c1cc(OC2CCNCC2)c2cn[nH]c2c1 |
| 218 to 220 °C (dec.) | O=C(O)CCC(=O)Nc1ccc2[nH]ncc2c1 |
| 144 to 146 °C | c1cc2[nH]ncc2cc1OC1CCCCC1 |
| 141 to 142 °C | c1cc2[nH]ncc2cc1OC1CCCC1 |
| 125 to 126 °C | CC(C)N1CCC(Oc2ccc3[nH]ncc3c2)CC1 |
| 189 to 190 °C | O=C(CN1CCCCC1)Nc1ccc2[nH]ncc2c1 |

| melting point | SMILES |
| --- | --- |
| 147 to 148 °C | OC1CCC(Oc2ccc3[nH]ncc3c2)C1 (centres unmarked) |
| 159 to 160 °C | c1cc2[nH]ncc2cc1OC1CCCNCC1 (centres unmarked) |
| 144 to 146 °C | N[C@H]1CC[C@@H](Oc2ccc3[nH]ncc3c2)CC1 |
| 144 to 146 °C | CNc1ccc2[nH]ncc2c1 |
| 175 to 177 °C | CN(c1ccc2[nH]ncc2c1)C1CCNCC1 |
| 138 to 140 °C | c1cc2[nH]ncc2cc1OC1CCCN(C2CCCC2)CC1 (centres unmarked) |
| 161 to 163 °C | CC(=O)N1CCC(Oc2ccc3[nH]ncc3c2C)CC1 |
| 190 to 191 °C | O=C(c1ccc2[nH]ncc2c1)N1CCNCC1 |
| 291 to 293 °C (dec.) | CS(=O)(=O)N1CCC(C(=O)Nc2ccc3[nH]ncc3c2)CC1 |
| 286 to 288 °C (dec.) | O=C(Nc1ccc2[nH]ncc2c1)C1CCOCC1 |
| 236 to 238 °C | c1cc2[nH]ncc2cc1NC1CC2CCC(C1)N2 (centres unmarked) |
| 293 to 294 °C (dec.) | c1cc2[nH]ncc2cc1NCC1CCOCC1 |
| 285 to 286 °C | O=C(NC1CCOCC1)c1ccc2[nH]ncc2c1 |
| 184 to 188 °C | Cl.Cl.c1cc2[nH]ncc2cc1NC1CN2CCC1CC2 (centres unmarked) |
| 195 to 197 °C | O=C(CC1CCN(Cc2ccccc2)CC1)Nc1ccc2[nH]ncc2c1 |
| 169 to 172 °C | O=C(C=C1CCN(Cc2ccccc2)CC1)Nc1ccc2[nH]ncc2c1 |
| 184 to 186 °C (dec.) | c1cc2[nH]ncc2cc1NCCC1CCNCC1 |
| 196 to 198 °C (dec.) | c1ccc(CN2CCN(c3ccc4[nH]ncc4c3)CC2)cc1 |
| 270 to 271 °C | Cl.Cl.c1cc(NC2CCNCC2)c2cn[nH]c2c1 |
| 196 to 197 °C (dec.) | c1cc2cn[nH]c2cc1NC1CCNCC1 |
| 179 to 180 °C | N[C@H]1CCC[C@H](Oc2ccc3[nH]ncc3c2)C1 (relative stereo) |
| 151 to 152 °C | c1cc2[nH]ncc2cc1OC1CCOCC1 [Example 44] |
| 151 to 153 °C | c1cc2[nH]ncc2cc1OC1CCOCC1 [Example 365] |
